We go through 10 compounds from article doi:10.1101/2025.05.09.652710v1 (bioRxiv, 2025).

Experiment [1] concerns the target thrombin (Homo sapiens, UniProt P00734). Description: Chromogenic kinetic enzyme assay, thrombin. The class given is biochemical.
Experiment [2] addresses T1, HGFA (Homo sapiens, UniProt Q04756).
T1 sequence (Q04756 373-655): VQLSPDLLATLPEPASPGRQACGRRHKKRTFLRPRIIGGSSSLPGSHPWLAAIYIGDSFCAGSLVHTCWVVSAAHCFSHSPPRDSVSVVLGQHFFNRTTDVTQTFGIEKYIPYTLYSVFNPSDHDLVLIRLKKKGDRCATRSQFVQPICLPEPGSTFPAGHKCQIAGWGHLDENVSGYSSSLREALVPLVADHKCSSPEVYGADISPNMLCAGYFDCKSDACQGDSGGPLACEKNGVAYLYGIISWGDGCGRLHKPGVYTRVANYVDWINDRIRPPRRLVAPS
The experiment can be described thus: Fluorogenic kinetic enzyme inhibitor assay, HGFA. It counts as biochemical.

Experiment [3] has as its target T2, matriptase (Homo sapiens, UniProt Q9Y5Y6).
T2 sequence (Q9Y5Y6 615-855): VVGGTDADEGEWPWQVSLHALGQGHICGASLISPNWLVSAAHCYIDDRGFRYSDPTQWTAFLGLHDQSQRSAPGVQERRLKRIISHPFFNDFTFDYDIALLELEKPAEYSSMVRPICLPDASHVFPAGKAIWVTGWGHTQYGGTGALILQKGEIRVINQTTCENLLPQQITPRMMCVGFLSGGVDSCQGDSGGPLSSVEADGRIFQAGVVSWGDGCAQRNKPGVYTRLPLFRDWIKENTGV
Description: Fluorogenic kinetic enzyme inhibitor assay, matriptase. It counts as biochemical.

For experiment [4], the target named is Factor Xa (Homo sapiens, UniProt P00742). The experiment can be described thus: Chromogenic kinetic enzyme assay, Factor Xa. The class given is biochemical.
Experiment [5] deals with chimeric VSV SARS-CoV-2 virus. Particulars: chimeric VSV virus.
In experiment [6] the test system is influenza A virus strain A/California/4/2009 (pdmH1N1). The following applies: for H1N1 titer Log fold reduction (1 μM): virus strain A/California/4/2009 (pdmH1N1, 72 h, 1 μM); for H1N1 titer Log fold reduction (10 μM): virus strain A/California/4/2009 (pdmH1N1, 72 h, 10 μM).
For experiment [7], the target named is TMPRSS2 (Homo sapiens, UniProt O15393, Q253D/R252D/R255K/S251D/S254D). The experiment can be described thus: Fluorogenic kinetic enzyme inhibitor assay, TMPRSS2. It counts as biochemical.
Experiment [8] has as its target hepsin (Homo sapiens, UniProt P05981). Description: Fluorogenic kinetic enzyme inhibitor assay, hepsin. The class given is biochemical.

The pIC50 is −log10 of the IC50, conventionally taken in molar units. What is called pEC50 is −log10 of the EC50, conventionally taken in molar units. A high value points to a small EC50.

pEC50, pIC50: −log10 of the molar value.

TMPRSS2, sequence (O15393 109-492 S251D/R252D/Q253D/S254D/R255K limits assumed): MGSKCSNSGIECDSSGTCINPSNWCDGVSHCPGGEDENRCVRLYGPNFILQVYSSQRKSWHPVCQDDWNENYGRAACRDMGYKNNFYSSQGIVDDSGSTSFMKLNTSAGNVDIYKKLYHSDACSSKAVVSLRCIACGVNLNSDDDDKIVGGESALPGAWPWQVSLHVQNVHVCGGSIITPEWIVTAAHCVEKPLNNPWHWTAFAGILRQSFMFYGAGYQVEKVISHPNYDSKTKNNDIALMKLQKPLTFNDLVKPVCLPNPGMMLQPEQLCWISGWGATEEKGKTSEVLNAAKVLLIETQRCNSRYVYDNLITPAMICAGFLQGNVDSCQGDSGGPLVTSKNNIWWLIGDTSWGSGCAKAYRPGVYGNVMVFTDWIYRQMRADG
Factor Xa, sequence (P00742 235-488 limits assumed): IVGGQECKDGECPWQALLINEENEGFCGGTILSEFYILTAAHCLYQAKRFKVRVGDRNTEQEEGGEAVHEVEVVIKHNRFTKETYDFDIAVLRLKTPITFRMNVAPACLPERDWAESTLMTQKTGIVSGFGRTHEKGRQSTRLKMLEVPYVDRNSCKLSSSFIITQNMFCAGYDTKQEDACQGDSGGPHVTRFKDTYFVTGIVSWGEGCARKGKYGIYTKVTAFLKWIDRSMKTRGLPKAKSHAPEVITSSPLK
Factor Xa, sequence (P00742 41-179 partner limits assumed): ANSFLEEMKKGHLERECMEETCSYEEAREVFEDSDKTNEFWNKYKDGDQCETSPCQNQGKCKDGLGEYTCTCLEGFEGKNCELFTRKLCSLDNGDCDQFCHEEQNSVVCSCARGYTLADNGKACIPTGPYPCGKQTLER
hepsin, sequence (P05981 163-417 limits assumed): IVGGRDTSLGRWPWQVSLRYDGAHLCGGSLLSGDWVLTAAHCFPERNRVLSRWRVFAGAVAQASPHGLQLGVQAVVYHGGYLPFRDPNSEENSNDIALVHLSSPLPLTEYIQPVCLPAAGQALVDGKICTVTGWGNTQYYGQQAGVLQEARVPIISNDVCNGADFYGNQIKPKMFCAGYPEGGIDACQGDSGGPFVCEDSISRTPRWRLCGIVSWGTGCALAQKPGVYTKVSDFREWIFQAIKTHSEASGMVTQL
hepsin, sequence (P05981 45-162 partner limits assumed): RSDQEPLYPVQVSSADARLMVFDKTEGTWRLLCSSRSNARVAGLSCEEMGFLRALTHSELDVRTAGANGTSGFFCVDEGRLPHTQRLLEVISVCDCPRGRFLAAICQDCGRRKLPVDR

Consider `CC[C@H](C)[C@H](NC(C)=O)C(=O)N[C@@H](CCC(N)=O)C(=O)N[C@@H](C)C(=O)N[C@@H](CCCNC(=N)N)C(=O)c1nc2ccccc2s1` [MM3178, Ac-IQAR-kbt], for which the pIC50 in experiment [1] was less than 4.70; in experiment [2] it was less than 4.70; in experiment [3] it was 10.00; in experiment [4], 6.77; in experiment [7], 9.64; in experiment [8] it was 8.89. Further, the pEC50 in experiment [5] was 7.96. The “H1N1 Fold inhibition @ 0.1 μM” value in experiment [6] was 2. Further, the “H1N1 Fold inhibition @ 1 μM” value in experiment [6] came to 91. Moreover, the “H1N1 Fold inhibition @ 10 μM” value in experiment [6] turned out to be 238. In experiment [6], the “H1N1 titer Log fold reduction (1 μM)” value is 2.0. The “H1N1 titer Log fold reduction (10 μM)” value in experiment [6] was found to be 2.4.
With `CC[C@H](C)[C@H](NC(C)=O)C(=O)N[C@@H](CCC(N)=O)C(=O)N[C@@H](Cc1c[nH]c2ccccc12)C(=O)N[C@@H](CCCNC(=N)N)C(=O)c1nc2ccccc2s1` [MM3187, Ac-IQWR-kbt], the pIC50 in experiment [1] is less than 4.70; in experiment [2], 5.84; in experiment [3], 8.92; in experiment [4] it was 6.89; in experiment [7], 8.66; in experiment [8], 9.49. In addition, the pEC50 in experiment [5] was 7.66.
For the compound `CC[C@H](C)[C@H](NC(C)=O)C(=O)N[C@@H](CO)C(=O)N[C@@H](Cc1ccccc1)C(=O)N[C@@H](CCCNC(=N)N)C(=O)c1nc2ccccc2s1` [MM4009, Ac-ISFR-kbt], in experiment [1], the pIC50 was less than 4.70. This compound also gave a pIC50 in experiment [2] of 6.74. The compound also had a pIC50 in experiment [3] of 8.33. This compound showed a pEC50 in experiment [5] of 7.40. Also, in experiment [6], the “H1N1 Fold inhibition @ 0.1 μM” value is recorded as 2, the “H1N1 Fold inhibition @ 1 μM” value is listed as 3, the “H1N1 Fold inhibition @ 10 μM” value worked out at 743 and the “H1N1 titer Log fold reduction (1 μM)” value was determined as 0.62. For the same compound, the “H1N1 titer Log fold reduction (10 μM)” value in experiment [6] came to 3.4. Also, the pIC50 in experiment [7] was 10.15. In addition, the pIC50 in experiment [8] was 9.07.
Turning to `CC[C@H](C)[C@H](NC(C)=O)C(=O)N[C@@H](CCC(N)=O)C(=O)N[C@H](C(=O)N[C@@H](CCCNC(=N)N)C(=O)c1nc2ccccc2s1)[C@@H](C)O` [MM3186, Ac-IQTR-kbt], the negative logarithm of the IC50 (pIC50) was less than 4.70 in experiment [1]; 4.74 in experiment [2]; 7.80 in experiment [3]; less than 4.70 in experiment [4]; 9.77 in experiment [7]; 9.01 in experiment [8]. In experiment [5], this compound had a pEC50 of 7.72.
In the case of `CC[C@H](C)[C@H](NC(C)=O)C(=O)N[C@H](Cc1c[nH]c2ccccc12)C(=O)N[C@@H](Cc1ccccc1)C(=O)N[C@@H](CCCNC(=N)N)C(=O)c1nc2ccccc2s1` [MM4038, Ac-IdWFR-kbt], the pIC50 in experiment [1] was less than 4.70; in experiment [2], 7.18; in experiment [3] it was 7.60; in experiment [7] it was 10.40; in experiment [8] it was 7.92. This compound also had a pEC50 in experiment [5] of 6.65. In addition, in experiment [6], the “H1N1 titer Log fold reduction (1 μM)” value was 2.1. Further, in experiment [6], the “H1N1 titer Log fold reduction (10 μM)” value was 3.0.
In the case of `CC[C@H](C)[C@H](NC(C)=O)C(=O)N[C@@H](CCC(=O)O)C(=O)N[C@@H](Cc1ccccc1)C(=O)N[C@@H](CCCNC(=N)N)C(=O)c1nc2ccccc2s1` [MM4037, Ac-IEFR-kbt], the pIC50 in experiment [1] is less than 4.70; in experiment [2] it was 6.56; in experiment [3], 8.62; in experiment [7], 9.96; in experiment [8] it was 9.46. The compound also gave a pEC50 in experiment [5] of 7.62.
For `CC[C@H](C)[C@H](NC(C)=O)C(=O)N[C@@H](CCC(N)=O)C(=O)N[C@H](C(=O)N[C@H](CCCNC(=N)N)C(=O)c1nc2ccccc2s1)C(C)C` [MM3180-1, Ac-IQVdR-kbt], the pIC50 was less than 4.70 in experiment [1]; 4.84 in experiment [2]; 7.64 in experiment [3]; less than 4.70 in experiment [4]; 8.54 in experiment [7]; 8.76 in experiment [8].
Regarding `CC[C@H](C)[C@H](NC(C)=O)C(=O)N[C@@H](CCC(N)=O)C(=O)N[C@@H](Cc1ccccc1)C(=O)N[C@@H](CCCNC(=N)N)C(=O)c1nc2ccccc2s1` [MM3116, Ac-IQFR-kbt], the pIC50 in experiment [1] is less than 4.70; in experiment [2], 7.52; in experiment [3] it was 9.04; in experiment [4], 6.10; in experiment [7], 8.77; in experiment [8], 9.85. Also, in experiment [5], the pEC50 is 8.44.
Consider `CC[C@H](C)[C@H](NC(C)=O)C(=O)N[C@@H](CCC(N)=O)C(=O)N[C@@H](CO)C(=O)N[C@@H](CCCNC(=N)N)C(=O)c1nc2ccccc2s1` [MM3177, Ac-IQSR-kbt], for which the pIC50 in experiment [1] was less than 4.70; in experiment [2], 4.70; in experiment [3], 8.89; in experiment [4], 5.76; in experiment [7], 8.35; in experiment [8], 8.62. In experiment [5], the negative-log EC50 (pEC50) is 7.44.
With `CC[C@H](C)[C@H](NC(C)=O)C(=O)N[C@@H](CCC(N)=O)C(=O)N[C@H](C(=O)N[C@@H](CCCNC(=N)N)C(=O)c1nc2ccccc2s1)C(C)C` [MM3180, Ac-IQVR-kbt], in experiment [1], the pIC50 is less than 4.70. In experiment [2], this compound had a pIC50 of 6.10. This compound also gave a pIC50 in experiment [3] of 9.12. The compound also had a pEC50 in experiment [5] of 7.92. In experiment [6], the “H1N1 Fold inhibition @ 0.1 μM” value is 2, the “H1N1 Fold inhibition @ 1 μM” value is given as 135, the “H1N1 Fold inhibition @ 10 μM” value turned out to be 359 and the “H1N1 titer Log fold reduction (1 μM)” value turned out to be 2.1. In addition, the “H1N1 titer Log fold reduction (10 μM)” value in experiment [6] was found to be 2.6. The same compound showed a pIC50 in experiment [7] of 10.52. For the same compound, in experiment [8], the pIC50 was 9.96.
